By IC50 is commonly meant the midpoint of a concentration-inhibition curve. Broadly, the IC90 is the point of the concentration-response curve where the effect stands at 90%.

This passage reports IC50 and IC90 results from ChEMBL document CHEMBL4483862, “Open-source discovery of chemical leads for next-generation chemoprotective antimalarials” (2018).

Where only a bound is given, the exact number is not on record here.

This test has as its system Plasmodium berghei. In words: Luciferase/luciferin-expressing antifolate-resistant parasites were used to infect a culture of HepG2 cells that were pre-incubated with compounds. Infected hepatocytes emit light due to the luciferase reaction. Assay results are presented as the percent inhibition of light emission compared to control. […]. It is filed as functional. As to conditions: sporozoite; for IC90: read-out: LUCIFERASE INFECTION ASSAY - IC90.

Where [1] appears, read: read-out: LUCIFERASE INFECTION ASSAY - IC50.

As to `Cc1cc(C(=O)OCC(=O)c2ccc[nH]2)c2c(C)noc2n1`, the IC90 is above 10 µM. The IC50 under setting [1] is above 10 µM.

Turning to `Cc1cc(C(=O)CSc2nc3cc([N+](=O)[O-])ccc3n2-c2ccccc2)c(C)n1Cc1ccco1`, the IC90 was above 10 µM. Further, the IC50 under setting [1] was above 10 µM.

In the case of `O=C(NC(=S)NN(C(=S)NC(=O)c1ccccc1Br)c1nc2ccccc2[nH]1)c1ccccc1Br`, the IC90 was above 10 µM. Besides, under setting [1], the IC50 was above 10 µM.

Take `CC(Nc1ncnc2ccsc12)c1nc2ccccc2n1C(F)F` (centres undefined): the IC90 was 7.92 µM. For the setting “HEPG2TOX_HILL_SLOPE 1.22, HEPG2TOX_R_SQUARED 0.959, PBLUC_HILL_SLOPE 2.24, PBLUC_R_SQUARED 0.732, read-out: LUCIFERASE INFECTION ASSAY - IC50”, the IC50 was found to be 2.97 µM.

Regarding `COc1ccc(C(=O)COC(=O)Cc2cccc(C(F)(F)F)c2)cc1`, the concentration for an effect of 90% (IC90) was determined as 1.69 µM. In addition, the IC50 (HEPG2TOX_HILL_SLOPE 1.29, HEPG2TOX_R_SQUARED 0.956, PBLUC_HILL_SLOPE 8.73, PBLUC_R_SQUARED 0.385, read-out: LUCIFERASE INFECTION ASSAY - IC50) is 1.32 µM.

With `COc1ccc(CCC2CCN(C(=O)c3cc(S(N)(=O)=O)c(Cl)cc3Cl)CC2)cc1`, the 90% effect concentration (IC90) is above 10 µM. Also, for the setting “PBLUC_HILL_SLOPE 15.3, 12.1, PBLUC_R_SQUARED 0.180, 0.0239, read-out: LUCIFERASE INFECTION ASSAY - IC50”, the IC50 was 9.53 µM.

As to `Cc1cc(C)n2nc(SC(C)C(=O)N3CCCc4ccccc43)nc2n1` (centres undefined), the IC90 was above 2 µM. Besides, under setting [1], the IC50 was above 2 µM.

Take `CC(=O)Nc1cccc(-c2cn3c(-c4ccc5c(ccn5C)c4)cnc3cn2)c1`: the IC90 came to 7.79 µM. Further, for the setting “HEPG2TOX_HILL_SLOPE 2.25, HEPG2TOX_R_SQUARED 0.952, PBLUC_HILL_SLOPE 1.38, PBLUC_R_SQUARED 0.642, read-out: LUCIFERASE INFECTION ASSAY - IC50”, the IC50 is 1.59 µM.

For the compound `N#C/C(=C\Nc1cc(C(F)(F)F)cc(C(F)(F)F)c1)S(=O)(=O)c1ccccc1`, the concentration for an effect of 90% (IC90) was above 7.85 µM. Also, under “FFLUC_HILL_SLOPE 0.883, FFLUC_R_SQUARED 0.592, HEPG2TOX_HILL_SLOPE 1.61, HEPG2TOX_R_SQUARED 0.979, PBLUC_HILL_SLOPE 2.79, PBLUC_R_SQUARED 0.181, read-out: LUCIFERASE INFECTION ASSAY - IC50”, the IC50 stood at 4.35 µM.

`N#C/C(=C\Nc1ncccn1)S(=O)(=O)c1ccccc1Cl`: the IC90 is above 10.3 µM. The IC50 (FFLUC_HILL_SLOPE 11.3, FFLUC_R_SQUARED 0.831, read-out: LUCIFERASE INFECTION ASSAY - IC50) is above 10.3 µM.

In the case of `COc1ccc(-n2ncc(C(=O)Nc3nc(-c4ccc5ccccc5c4)cs3)c2C(F)(F)F)nn1`, the IC90 was determined as 2.93 µM. The IC50 (HEPG2TOX_HILL_SLOPE 2.25, 10.1, HEPG2TOX_R_SQUARED 0.989, 0.350, PBLUC_HILL_SLOPE 1.53, 1.53, PBLUC_R_SQUARED 0.682, 0.949, read-out: LUCIFERASE INFECTION ASSAY - IC50) was found to be 0.695 µM.

For the compound `Cc1nn(C(C)(C)C)c(C)c1/C=N/OC(=O)Nc1ccc(Cl)cc1`, the concentration for an effect of 90% (IC90) turned out to be 0.27 µM. In addition, the IC50 under setting [1] was found to be 0.0825 µM.

`Cc1ccc(C)c(NC(=O)C(OC(=O)c2c3c(nc4ccccc24)CCN(C)C3)c2ccccc2)c1` (centres undefined): the 90% effect concentration (IC90) is above 10 µM. Also, the concentration for half-maximal inhibition (IC50) (HEPG2TOX_HILL_SLOPE 0.135, HEPG2TOX_R_SQUARED 0.194, read-out: LUCIFERASE INFECTION ASSAY - IC50) is above 10 µM.

With `COc1ccc(CN=C2NN=C(c3cc4ccccc4o3)CS2)cc1`, the IC90 was found to be 0.318 µM. The IC50 (HEPG2TOX_HILL_SLOPE 1.33, HEPG2TOX_R_SQUARED 0.982, PBLUC_HILL_SLOPE 1.63, PBLUC_R_SQUARED 0.322, read-out: LUCIFERASE INFECTION ASSAY - IC50) turned out to be 0.0829 µM.

Turning to `COc1ccccc1C(CNC(=O)c1ccc(-c2ccccc2Cl)o1)N1CCCC1` (centres undefined), the IC90 came out at 9.73 µM. The IC50 (PBLUC_HILL_SLOPE 3.28, PBLUC_R_SQUARED 0.202, read-out: LUCIFERASE INFECTION ASSAY - IC50) was determined as 4.98 µM.

Regarding `Cc1ccc(CNC(=O)c2cc(-c3ccccc3)nn2-c2ccccc2)cc1`, the IC90 was above 10 µM. In addition, the IC50 (FFLUC_HILL_SLOPE 15.6, FFLUC_R_SQUARED 0.349, read-out: LUCIFERASE INFECTION ASSAY - IC50) is above 10 µM.

In the case of `COC(=O)c1ccc(/C=C2\Oc3cc(O)cc(C)c3C2=O)cc1`, the IC90 was above 10.6 µM. Besides, the 50% inhibitory concentration (IC50) (FFLUC_HILL_SLOPE 2.39, FFLUC_R_SQUARED 0.815, read-out: LUCIFERASE INFECTION ASSAY - IC50) is above 10.6 µM.

For `COc1ccc2c3c(cccc13)C(=O)N(c1nc3ccccc3n1C)C2=O`, the IC90 is above 9.23 µM. Also, the IC50 under setting [1] was above 9.23 µM.

For `Cc1cccc(C)c1NC(=O)NCCSCc1c(Cl)cccc1Cl`, the 90% effect concentration (IC90) was above 8.61 µM. Further, the IC50 under setting [1] was above 8.61 µM.

With `CC(C)CNC(=O)c1cc(Br)ccc1O`, the IC90 is above 10 µM. Further, the IC50 under setting [1] was above 10 µM.

As for `O=[N+]([O-])c1ccccc1CS(=O)(=O)c1nc2ccccc2s1`, the IC90 is above 9.87 µM. In addition, the IC50 (HEPG2TOX_HILL_SLOPE 1.54, HEPG2TOX_R_SQUARED 0.3, PBLUC_HILL_SLOPE 1.66, PBLUC_R_SQUARED 0.0862, read-out: LUCIFERASE INFECTION ASSAY - IC50) came out at 5.91 µM.

Regarding `Cc1ccc(C)c(-n2c(SC(C)c3nc(N)nc(N(C)C)n3)nc3ccccc3c2=O)c1` (centres undefined), the concentration for an effect of 90% (IC90) was above 10 µM. Moreover, the IC50 (FFLUC_HILL_SLOPE 0.719, FFLUC_R_SQUARED 0.145, PBLUC_HILL_SLOPE 15.9, PBLUC_R_SQUARED 0.219, read-out: LUCIFERASE INFECTION ASSAY - IC50) stood at 9.47 µM.

With `N=C1NC(=Nc2ccc(Cl)c(Cl)c2)c2ccccc21`, the 90% effect concentration (IC90) is above 10 µM. Further, the IC50 (PBLUC_HILL_SLOPE 9.86, PBLUC_R_SQUARED 0.113, read-out: LUCIFERASE INFECTION ASSAY - IC50) was found to be 9.53 µM.

Turning to `Cc1ccc(-n2nnnc2SCc2ccccc2Cl)c(C)c1`, the IC90 was above 9.97 µM. For the same compound, the IC50 (HEPG2TOX_HILL_SLOPE 1.94, HEPG2TOX_R_SQUARED 0.896, PBLUC_HILL_SLOPE 2.04, PBLUC_R_SQUARED 0.254, read-out: LUCIFERASE INFECTION ASSAY - IC50) was 6.75 µM.

Consider `CC(C(=O)Nc1ccc(S(=O)(=O)N2CCCC2)cc1)N1CCC(CCc2ccc(O)cc2)CC1` (centres undefined), for which the IC90 is above 10 µM. In addition, the half-inhibitory concentration (IC50) (FFLUC_HILL_SLOPE 12.4, FFLUC_R_SQUARED 0.343, PBLUC_HILL_SLOPE 0.669, PBLUC_R_SQUARED 0.407, read-out: LUCIFERASE INFECTION ASSAY - IC50) was above 10 µM.

For `COc1ccc(-c2cnc3cnc(-c4cccc(C(N)=O)c4)cn23)cn1`, the IC90 worked out at 3.91 µM. In addition, the concentration for half-maximal inhibition (IC50) (PBLUC_HILL_SLOPE 17.6, PBLUC_R_SQUARED 0.459, read-out: LUCIFERASE INFECTION ASSAY - IC50) was 3.45 µM.

As to `CC(=O)Nc1cccc(-c2ccnc3c2CC(C(=O)NCc2cccs2)O3)c1` (centres undefined), the concentration for an effect of 90% (IC90) came out at 3.24 µM. The IC50 (FFLUC_HILL_SLOPE 58.8, FFLUC_R_SQUARED 0.264, HEPG2TOX_HILL_SLOPE 13.5, HEPG2TOX_R_SQUARED 0.74, PBLUC_HILL_SLOPE 13.2, PBLUC_R_SQUARED 0.157, read-out: LUCIFERASE INFECTION ASSAY - IC50) is 2.74 µM.

On to `Cc1cc(C)c(C)c(S)c1C`, for which the IC90 was above 10 µM. Under setting [1], the IC50 is above 10 µM.

Consider `NC(=S)CCOC1CCN(Cc2ccccc2)CC1`, for which the IC90 is above 11.9 µM. Besides, the IC50 under setting [1] was above 11.9 µM.

In the case of `CNc1snc(C)c1C(=O)OCCCOC(=O)c1c(C)nsc1NC`, the IC90 worked out at 6.67 µM. Also, for the setting “PBLUC_HILL_SLOPE 109, PBLUC_R_SQUARED 0.523, read-out: LUCIFERASE INFECTION ASSAY - IC50”, the IC50 is 6.54 µM.

Regarding `O=C(Nc1cccc2c[nH]nc12)c1cnc(OCC(F)(F)F)c(Cl)c1`, the IC90 worked out at 5.53 µM. Besides, the IC50 (PBLUC_HILL_SLOPE 2.15, PBLUC_R_SQUARED 0.641, read-out: LUCIFERASE INFECTION ASSAY - IC50) was 1.99 µM.

For the compound `CCNC(=O)C1CCCN(Cc2noc(-c3ccccc3OC)n2)CC1` (centres undefined), the IC90 was above 9.21 µM. Moreover, under setting [1], the IC50 was above 9.21 µM.

In the case of `O=C(Nc1cccc(Cl)c1)Nc1cccc(Cl)c1`, the IC90 is 5.51 µM. Also, the IC50 (PBLUC_HILL_SLOPE 3.72, PBLUC_R_SQUARED 0.618, read-out: LUCIFERASE INFECTION ASSAY - IC50) is 3.05 µM.

For the compound `FC(F)Oc1ccc(-c2n[nH]cc2Sc2ccc(Cl)cc2)cc1`, the IC90 was above 9.35 µM. The IC50 (FFLUC_HILL_SLOPE 44.1, FFLUC_R_SQUARED 0.44, PBLUC_HILL_SLOPE 8.27, PBLUC_R_SQUARED 0.292, read-out: LUCIFERASE INFECTION ASSAY - IC50) is above 9.35 µM.

Take `COc1ccc(O)c(/C=N/NC(=O)c2ccc(CSc3nc(C)cc(C)n3)cc2)c1`: the IC90 came to 4.88 µM. For the same compound, where the note is “FFLUC_HILL_SLOPE 9.54, FFLUC_R_SQUARED 0.0205, HEPG2TOX_HILL_SLOPE 2.18, HEPG2TOX_R_SQUARED 0.934, PBLUC_HILL_SLOPE 9.18, PBLUC_R_SQUARED 0.547, read-out: LUCIFERASE INFECTION ASSAY - IC50”, the IC50 was 3.84 µM.

As for `O=c1nc(-c2ccccn2)[nH]c2scc(-c3ccccc3)c12`, the IC90 is 2.25 µM. Under “HEPG2TOX_HILL_SLOPE 1.76, HEPG2TOX_R_SQUARED 0.7, PBLUC_HILL_SLOPE 112, PBLUC_R_SQUARED 0.058, read-out: LUCIFERASE INFECTION ASSAY - IC50”, the IC50 came out at 2.21 µM.

For `CCOC(=O)c1sc([S+](C)[O-])c2c1CCc1conc1-2` (centres undefined), the 90% effect concentration (IC90) was above 10.6 µM. Moreover, under setting [1], the half-maximal inhibitory concentration (IC50) was above 10.6 µM.
